Assay results: ChEMBL document CHEMBL4033665, “Synthesis and applications of benzohydroxamic acid-based histone deacetylase inhibitors” (Eur J Med Chem, 2017)

Assays:
Histone deacetylase 1 [1] = molecular target: T1, Histone deacetylase 1 (Homo sapiens, UniProt Q13547); test: Inhibition of HDAC1 (unknown origin)
Histone deacetylase 2 [2] = molecular target: T2, Histone deacetylase 2 (Homo sapiens, UniProt Q92769); test: Inhibition of HDAC2 (unknown origin)
Histone deacetylase 3 [3] = molecular target: T3, Histone deacetylase 3 (Homo sapiens, UniProt O15379); test: Inhibition of HDAC3 (unknown origin)
Histone deacetylase 4 [4] = molecular target: T4, Histone deacetylase 4 (Homo sapiens, UniProt P56524); test: Inhibition of HDAC4 (unknown origin)
Histone deacetylase 5 [5] = molecular target: T5, Histone deacetylase 5 (Homo sapiens, UniProt Q9UQL6); test: Inhibition of HDAC5 (unknown origin)
[6] = molecular target: T6, Protein deacetylase HDAC6 (Homo sapiens, UniProt Q9UBN7); test: Inhibition of HDAC6 (unknown origin)
T6 sequence (Q9UBN7 whole entry): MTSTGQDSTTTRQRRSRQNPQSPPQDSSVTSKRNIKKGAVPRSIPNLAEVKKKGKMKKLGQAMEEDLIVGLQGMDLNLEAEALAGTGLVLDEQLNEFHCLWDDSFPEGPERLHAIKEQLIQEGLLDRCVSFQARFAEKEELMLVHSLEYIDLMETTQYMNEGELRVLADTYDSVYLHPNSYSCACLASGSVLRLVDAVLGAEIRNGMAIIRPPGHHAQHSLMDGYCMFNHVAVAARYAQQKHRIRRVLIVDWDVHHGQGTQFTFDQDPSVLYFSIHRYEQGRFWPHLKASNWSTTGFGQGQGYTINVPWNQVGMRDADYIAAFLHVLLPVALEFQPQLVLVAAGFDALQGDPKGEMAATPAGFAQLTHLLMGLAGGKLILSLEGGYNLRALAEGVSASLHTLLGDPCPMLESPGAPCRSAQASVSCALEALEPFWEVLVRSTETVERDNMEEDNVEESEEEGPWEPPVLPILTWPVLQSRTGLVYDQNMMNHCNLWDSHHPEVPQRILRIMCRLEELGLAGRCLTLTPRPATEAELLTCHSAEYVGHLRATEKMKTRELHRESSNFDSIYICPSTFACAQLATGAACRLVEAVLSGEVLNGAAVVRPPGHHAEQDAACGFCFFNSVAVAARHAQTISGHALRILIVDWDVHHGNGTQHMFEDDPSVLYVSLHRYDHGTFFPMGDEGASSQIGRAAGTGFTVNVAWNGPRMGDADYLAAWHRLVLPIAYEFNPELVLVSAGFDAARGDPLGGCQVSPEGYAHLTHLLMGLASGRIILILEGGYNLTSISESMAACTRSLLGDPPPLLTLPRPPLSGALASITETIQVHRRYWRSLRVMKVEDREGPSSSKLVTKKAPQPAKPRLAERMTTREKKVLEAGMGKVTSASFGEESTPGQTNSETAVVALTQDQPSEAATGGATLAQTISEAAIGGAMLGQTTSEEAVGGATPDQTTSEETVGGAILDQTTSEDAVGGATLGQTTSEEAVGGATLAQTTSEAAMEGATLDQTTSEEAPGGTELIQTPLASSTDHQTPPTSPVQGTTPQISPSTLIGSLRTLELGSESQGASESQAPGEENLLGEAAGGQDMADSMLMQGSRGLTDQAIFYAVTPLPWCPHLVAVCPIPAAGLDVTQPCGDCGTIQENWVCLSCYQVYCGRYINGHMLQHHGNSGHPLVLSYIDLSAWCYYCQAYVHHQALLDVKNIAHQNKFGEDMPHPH

Histone deacetylase 8 [7] = molecular target: T7, Histone deacetylase 8 (Homo sapiens, UniProt Q9BY41); test: Inhibition of HDAC8 (unknown origin)
T7 sequence (Q9BY41 whole entry): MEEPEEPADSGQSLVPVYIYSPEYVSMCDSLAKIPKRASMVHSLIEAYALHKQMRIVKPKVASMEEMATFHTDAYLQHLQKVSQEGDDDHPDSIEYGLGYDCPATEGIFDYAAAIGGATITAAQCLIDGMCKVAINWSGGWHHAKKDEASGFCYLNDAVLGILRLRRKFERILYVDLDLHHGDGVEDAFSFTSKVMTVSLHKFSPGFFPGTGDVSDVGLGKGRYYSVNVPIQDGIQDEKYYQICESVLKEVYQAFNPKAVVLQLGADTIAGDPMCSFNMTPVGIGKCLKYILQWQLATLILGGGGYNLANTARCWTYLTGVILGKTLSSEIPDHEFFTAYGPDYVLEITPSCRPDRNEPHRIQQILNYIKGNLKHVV

Histone deacetylase 9 = Histone deacetylase 9 (Homo sapiens, UniProt Q9UKV0); test: Inhibition of HDAC9 (unknown origin)
[8] = molecular target: T8, Polyamine deacetylase HDAC10 (Homo sapiens, UniProt Q969S8); test: Inhibition of HDAC10 (unknown origin)
T8 sequence (Q969S8 whole entry): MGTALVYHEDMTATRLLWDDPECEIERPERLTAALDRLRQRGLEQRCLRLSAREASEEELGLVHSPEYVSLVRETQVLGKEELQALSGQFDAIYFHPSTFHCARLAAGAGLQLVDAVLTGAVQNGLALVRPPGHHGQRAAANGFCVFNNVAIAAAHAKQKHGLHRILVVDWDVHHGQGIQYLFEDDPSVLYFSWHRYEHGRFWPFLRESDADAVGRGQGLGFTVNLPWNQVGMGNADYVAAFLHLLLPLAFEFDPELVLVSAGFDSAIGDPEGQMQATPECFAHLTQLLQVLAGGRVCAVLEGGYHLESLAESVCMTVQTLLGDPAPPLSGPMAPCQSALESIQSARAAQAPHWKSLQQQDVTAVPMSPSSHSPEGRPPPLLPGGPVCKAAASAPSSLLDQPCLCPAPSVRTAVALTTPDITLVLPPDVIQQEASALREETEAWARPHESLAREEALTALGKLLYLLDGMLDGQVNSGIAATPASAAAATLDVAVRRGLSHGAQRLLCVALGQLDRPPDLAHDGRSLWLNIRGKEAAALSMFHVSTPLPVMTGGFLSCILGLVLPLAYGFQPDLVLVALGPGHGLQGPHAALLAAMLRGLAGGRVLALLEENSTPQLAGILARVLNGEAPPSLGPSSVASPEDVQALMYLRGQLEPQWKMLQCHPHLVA

Histone deacetylase 11 = molecular target: T9, Histone deacetylase 11 (Homo sapiens, UniProt Q96DB2); test: Inhibition of HDAC11 (unknown origin)
T9 sequence (Q96DB2 whole entry): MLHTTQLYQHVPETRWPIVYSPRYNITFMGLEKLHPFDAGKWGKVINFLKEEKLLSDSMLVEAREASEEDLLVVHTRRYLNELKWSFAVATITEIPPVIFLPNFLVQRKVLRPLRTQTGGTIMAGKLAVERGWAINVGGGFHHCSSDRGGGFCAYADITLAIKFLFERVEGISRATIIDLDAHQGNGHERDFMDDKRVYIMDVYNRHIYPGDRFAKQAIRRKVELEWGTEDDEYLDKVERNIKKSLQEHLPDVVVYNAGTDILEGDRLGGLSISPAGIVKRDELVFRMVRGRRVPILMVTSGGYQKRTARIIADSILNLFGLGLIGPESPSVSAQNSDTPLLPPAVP

Histone deacetylase 1 [9] = molecular target: T1, Histone deacetylase 1; test: Inhibition of C-terminal His-tag and C-terminal FLAG-tagged full length human HDAC1 expressed in baculovirus expression system using AMC-labeled RHKKAc as substrate by fluorescence method
[10] = molecular target: T6, Protein deacetylase HDAC6; test: Inhibition of recombinant N-terminal GST-tagged full length human HDAC6 expressed in baculovirus expression system in Sf9 insect cells using AMC-labeled RHKKAc as substrate by fluorescence method
Histone deacetylase 1 [11] = molecular target: T1, Histone deacetylase 1; test: Inhibition of human HDAC1 using RHKKAc as substrate by fluorescence assay
Histone deacetylase 2 [12] = molecular target: T2, Histone deacetylase 2; test: Inhibition of human HDAC2 using RHKKAc as substrate by fluorescence assay
Histone deacetylase 4 [13] = molecular target: T4, Histone deacetylase 4; test: Inhibition of human HDAC4 using RHKKAc as substrate by fluorescence assay
Histone deacetylase 5 [14] = molecular target: T5, Histone deacetylase 5; test: Inhibition of human HDAC5 using RHKKAc as substrate by fluorescence assay
[15] = molecular target: T6, Protein deacetylase HDAC6; test: Inhibition of human HDAC6 using RHKKAc as substrate by fluorescence assay
Histone deacetylase 8 [16] = molecular target: T7, Histone deacetylase 8; test: Inhibition of human HDAC8 using RHKKAc as substrate by fluorescence assay
[17] = molecular target: T8, Polyamine deacetylase HDAC10; test: Inhibition of human HDAC10 using RHKKAc as substrate by fluorescence assay
Histone deacetylase 7 = molecular target: T10, Histone deacetylase 7 (Homo sapiens, UniProt Q8WUI4); test: Inhibition of HDAC7 (unknown origin)
T10 sequence (Q8WUI4 whole entry): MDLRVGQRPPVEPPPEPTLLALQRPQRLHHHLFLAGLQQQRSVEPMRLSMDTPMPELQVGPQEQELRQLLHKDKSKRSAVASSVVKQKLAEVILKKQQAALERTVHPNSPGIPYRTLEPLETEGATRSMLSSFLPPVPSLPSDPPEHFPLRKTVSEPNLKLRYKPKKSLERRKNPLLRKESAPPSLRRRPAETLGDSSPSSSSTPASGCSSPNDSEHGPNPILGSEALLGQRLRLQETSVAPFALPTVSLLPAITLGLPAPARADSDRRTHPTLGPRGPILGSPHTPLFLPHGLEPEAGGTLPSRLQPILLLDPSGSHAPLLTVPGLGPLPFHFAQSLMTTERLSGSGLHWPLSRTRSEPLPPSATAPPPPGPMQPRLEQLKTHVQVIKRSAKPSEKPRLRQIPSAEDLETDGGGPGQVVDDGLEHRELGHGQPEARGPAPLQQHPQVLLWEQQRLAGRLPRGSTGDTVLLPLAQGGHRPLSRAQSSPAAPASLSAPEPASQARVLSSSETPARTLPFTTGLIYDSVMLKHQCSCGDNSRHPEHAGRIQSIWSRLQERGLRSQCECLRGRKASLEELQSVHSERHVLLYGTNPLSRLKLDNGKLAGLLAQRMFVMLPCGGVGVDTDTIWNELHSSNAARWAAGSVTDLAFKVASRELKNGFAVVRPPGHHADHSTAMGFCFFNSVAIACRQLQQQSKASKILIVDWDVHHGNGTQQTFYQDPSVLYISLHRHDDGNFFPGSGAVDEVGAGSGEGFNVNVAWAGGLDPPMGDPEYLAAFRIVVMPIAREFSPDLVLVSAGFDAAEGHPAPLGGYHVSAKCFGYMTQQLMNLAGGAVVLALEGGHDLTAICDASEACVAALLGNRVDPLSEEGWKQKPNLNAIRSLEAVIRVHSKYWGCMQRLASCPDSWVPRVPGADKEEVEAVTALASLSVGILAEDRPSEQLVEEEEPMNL

Histone deacetylase 1 [18] = molecular target: T1, Histone deacetylase 1; test: Inhibition of C-terminal GST-tagged full length human HDAC1 expressed in baculovirus expression system in Sf9 cells using AMC-labeled RHKKAc as substrate after 2 hrs by fluorescence assay
Histone deacetylase 3 [19] = molecular target: T3, Histone deacetylase 3; test: Inhibition of C-terminal His-tagged full length human HDAC3 expressed in baculovirus expression system using AMC-labeled RHKKAc as substrate after 2 hrs by fluorescence assay
[20] = molecular target: T6, Protein deacetylase HDAC6; test: Inhibition of N-terminal GST-tagged full length human HDAC6 expressed in baculovirus expression system in Sf9 cells using AMC-labeled RHKKAc as substrate after 2 hrs by fluorescence assay
[21] = Inhibition of HDAC activity in human HeLa nuclear extract
Histone deacetylase 1 [22] = molecular target: T1, Histone deacetylase 1; test: Inhibition of HDAC1 (unknown origin) by fluorescence assay
Histone deacetylase 2 [23] = molecular target: T2, Histone deacetylase 2; test: Inhibition of HDAC2 (unknown origin) by fluorescence assay
Histone deacetylase 3 [24] = molecular target: T3, Histone deacetylase 3; test: Inhibition of HDAC3 (unknown origin) by fluorescence assay
Histone deacetylase 4 [25] = molecular target: T4, Histone deacetylase 4; test: Inhibition of HDAC4 (unknown origin) by fluorescence assay
[26] = molecular target: T6, Protein deacetylase HDAC6; test: Inhibition of HDAC6 (unknown origin) by fluorescence assay
Histone deacetylase 8 [27] = molecular target: T7, Histone deacetylase 8; test: Inhibition of HDAC8 (unknown origin) by fluorescence assay

T4 sequence (P56524 whole entry): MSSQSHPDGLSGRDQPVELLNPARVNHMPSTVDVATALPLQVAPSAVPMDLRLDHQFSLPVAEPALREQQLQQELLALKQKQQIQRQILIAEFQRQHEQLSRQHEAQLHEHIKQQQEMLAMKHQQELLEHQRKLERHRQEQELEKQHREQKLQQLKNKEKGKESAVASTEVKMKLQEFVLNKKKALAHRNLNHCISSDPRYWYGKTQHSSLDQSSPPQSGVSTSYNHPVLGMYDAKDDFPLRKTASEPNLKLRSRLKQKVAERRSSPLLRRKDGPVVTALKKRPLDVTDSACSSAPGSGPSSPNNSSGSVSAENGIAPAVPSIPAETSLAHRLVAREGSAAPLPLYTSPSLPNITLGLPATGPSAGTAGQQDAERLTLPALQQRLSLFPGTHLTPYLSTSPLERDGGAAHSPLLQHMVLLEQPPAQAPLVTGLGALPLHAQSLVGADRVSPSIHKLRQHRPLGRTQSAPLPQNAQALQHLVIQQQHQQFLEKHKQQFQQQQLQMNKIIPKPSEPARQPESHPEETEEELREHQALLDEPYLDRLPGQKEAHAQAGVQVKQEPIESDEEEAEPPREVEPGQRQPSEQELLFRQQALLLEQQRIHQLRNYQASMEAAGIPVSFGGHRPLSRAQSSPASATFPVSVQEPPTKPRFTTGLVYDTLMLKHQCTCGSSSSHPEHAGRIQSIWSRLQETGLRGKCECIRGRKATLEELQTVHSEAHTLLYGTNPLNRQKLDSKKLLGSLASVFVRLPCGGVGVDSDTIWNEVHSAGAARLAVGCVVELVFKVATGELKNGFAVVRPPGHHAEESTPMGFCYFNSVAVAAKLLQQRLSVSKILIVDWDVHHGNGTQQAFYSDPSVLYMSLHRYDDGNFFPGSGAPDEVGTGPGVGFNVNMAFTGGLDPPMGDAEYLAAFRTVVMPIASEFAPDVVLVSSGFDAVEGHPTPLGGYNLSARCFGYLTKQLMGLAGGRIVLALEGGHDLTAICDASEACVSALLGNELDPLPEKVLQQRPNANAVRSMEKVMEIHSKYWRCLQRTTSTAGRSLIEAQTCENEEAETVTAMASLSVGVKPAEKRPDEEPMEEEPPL
T1 sequence (Q13547 whole entry): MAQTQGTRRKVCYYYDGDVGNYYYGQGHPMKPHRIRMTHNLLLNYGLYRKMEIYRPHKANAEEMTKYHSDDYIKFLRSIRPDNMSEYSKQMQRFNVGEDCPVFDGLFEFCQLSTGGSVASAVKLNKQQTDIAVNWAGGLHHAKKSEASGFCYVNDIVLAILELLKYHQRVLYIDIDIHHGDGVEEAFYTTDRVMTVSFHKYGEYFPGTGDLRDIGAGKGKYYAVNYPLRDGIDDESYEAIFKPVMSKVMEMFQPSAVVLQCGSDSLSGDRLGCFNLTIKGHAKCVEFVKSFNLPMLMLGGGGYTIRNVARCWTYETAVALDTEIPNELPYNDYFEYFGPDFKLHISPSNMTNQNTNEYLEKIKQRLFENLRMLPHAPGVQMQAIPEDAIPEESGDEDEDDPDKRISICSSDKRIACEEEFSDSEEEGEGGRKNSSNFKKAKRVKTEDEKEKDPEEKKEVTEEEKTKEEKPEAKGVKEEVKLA
T2 sequence (Q92769 whole entry): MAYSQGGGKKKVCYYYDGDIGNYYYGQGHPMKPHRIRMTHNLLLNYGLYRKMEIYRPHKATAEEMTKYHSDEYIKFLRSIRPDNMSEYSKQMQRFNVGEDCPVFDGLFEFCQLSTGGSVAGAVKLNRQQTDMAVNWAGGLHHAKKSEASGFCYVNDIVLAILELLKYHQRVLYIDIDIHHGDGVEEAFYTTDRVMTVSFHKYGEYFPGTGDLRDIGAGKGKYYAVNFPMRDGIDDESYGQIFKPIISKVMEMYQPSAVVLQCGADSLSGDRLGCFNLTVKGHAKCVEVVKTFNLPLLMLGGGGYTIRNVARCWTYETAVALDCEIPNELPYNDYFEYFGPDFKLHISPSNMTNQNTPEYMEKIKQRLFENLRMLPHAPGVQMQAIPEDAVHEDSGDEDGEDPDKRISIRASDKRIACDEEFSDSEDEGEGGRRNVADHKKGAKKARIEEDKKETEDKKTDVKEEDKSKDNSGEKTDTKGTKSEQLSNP
T5 sequence (Q9UQL6 whole entry): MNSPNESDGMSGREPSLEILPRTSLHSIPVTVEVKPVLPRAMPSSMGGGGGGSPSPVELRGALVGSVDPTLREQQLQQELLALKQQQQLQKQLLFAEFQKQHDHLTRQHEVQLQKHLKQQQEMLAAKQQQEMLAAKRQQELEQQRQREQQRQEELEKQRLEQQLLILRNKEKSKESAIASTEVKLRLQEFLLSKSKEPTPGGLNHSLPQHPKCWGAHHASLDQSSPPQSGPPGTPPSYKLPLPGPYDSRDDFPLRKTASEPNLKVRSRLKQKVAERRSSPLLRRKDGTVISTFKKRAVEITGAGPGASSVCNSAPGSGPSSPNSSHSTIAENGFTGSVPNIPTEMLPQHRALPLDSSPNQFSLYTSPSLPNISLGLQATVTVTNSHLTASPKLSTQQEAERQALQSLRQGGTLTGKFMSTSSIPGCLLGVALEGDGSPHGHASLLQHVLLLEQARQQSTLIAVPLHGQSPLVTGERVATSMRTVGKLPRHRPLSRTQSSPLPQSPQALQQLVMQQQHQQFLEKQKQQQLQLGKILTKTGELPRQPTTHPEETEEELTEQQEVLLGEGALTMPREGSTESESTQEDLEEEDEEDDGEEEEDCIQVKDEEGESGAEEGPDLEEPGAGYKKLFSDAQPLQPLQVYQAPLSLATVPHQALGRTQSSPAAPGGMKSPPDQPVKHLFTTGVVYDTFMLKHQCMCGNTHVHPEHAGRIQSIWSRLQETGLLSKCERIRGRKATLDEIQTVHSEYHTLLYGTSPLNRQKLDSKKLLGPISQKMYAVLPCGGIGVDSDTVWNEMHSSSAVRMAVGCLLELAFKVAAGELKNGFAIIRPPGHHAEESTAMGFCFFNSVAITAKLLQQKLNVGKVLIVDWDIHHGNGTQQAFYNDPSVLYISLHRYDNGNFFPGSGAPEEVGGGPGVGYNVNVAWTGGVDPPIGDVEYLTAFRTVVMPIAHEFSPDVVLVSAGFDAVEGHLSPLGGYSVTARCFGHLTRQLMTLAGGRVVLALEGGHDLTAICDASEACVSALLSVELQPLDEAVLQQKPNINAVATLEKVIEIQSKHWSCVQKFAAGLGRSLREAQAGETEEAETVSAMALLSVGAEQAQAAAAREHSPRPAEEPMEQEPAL
T3 sequence (O15379 whole entry): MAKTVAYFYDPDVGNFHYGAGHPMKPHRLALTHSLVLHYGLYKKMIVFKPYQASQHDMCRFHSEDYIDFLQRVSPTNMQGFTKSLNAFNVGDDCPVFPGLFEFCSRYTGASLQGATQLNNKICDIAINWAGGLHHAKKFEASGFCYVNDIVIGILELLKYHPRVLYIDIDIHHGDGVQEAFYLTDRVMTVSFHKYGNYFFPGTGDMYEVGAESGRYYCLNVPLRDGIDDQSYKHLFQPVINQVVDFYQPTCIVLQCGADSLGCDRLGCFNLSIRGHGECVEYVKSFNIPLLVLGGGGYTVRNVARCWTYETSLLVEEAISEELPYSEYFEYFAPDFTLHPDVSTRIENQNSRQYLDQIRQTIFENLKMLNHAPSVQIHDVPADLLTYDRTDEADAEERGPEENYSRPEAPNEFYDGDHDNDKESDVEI
Sequence of Histone deacetylase 9 (Q9UKV0 whole entry): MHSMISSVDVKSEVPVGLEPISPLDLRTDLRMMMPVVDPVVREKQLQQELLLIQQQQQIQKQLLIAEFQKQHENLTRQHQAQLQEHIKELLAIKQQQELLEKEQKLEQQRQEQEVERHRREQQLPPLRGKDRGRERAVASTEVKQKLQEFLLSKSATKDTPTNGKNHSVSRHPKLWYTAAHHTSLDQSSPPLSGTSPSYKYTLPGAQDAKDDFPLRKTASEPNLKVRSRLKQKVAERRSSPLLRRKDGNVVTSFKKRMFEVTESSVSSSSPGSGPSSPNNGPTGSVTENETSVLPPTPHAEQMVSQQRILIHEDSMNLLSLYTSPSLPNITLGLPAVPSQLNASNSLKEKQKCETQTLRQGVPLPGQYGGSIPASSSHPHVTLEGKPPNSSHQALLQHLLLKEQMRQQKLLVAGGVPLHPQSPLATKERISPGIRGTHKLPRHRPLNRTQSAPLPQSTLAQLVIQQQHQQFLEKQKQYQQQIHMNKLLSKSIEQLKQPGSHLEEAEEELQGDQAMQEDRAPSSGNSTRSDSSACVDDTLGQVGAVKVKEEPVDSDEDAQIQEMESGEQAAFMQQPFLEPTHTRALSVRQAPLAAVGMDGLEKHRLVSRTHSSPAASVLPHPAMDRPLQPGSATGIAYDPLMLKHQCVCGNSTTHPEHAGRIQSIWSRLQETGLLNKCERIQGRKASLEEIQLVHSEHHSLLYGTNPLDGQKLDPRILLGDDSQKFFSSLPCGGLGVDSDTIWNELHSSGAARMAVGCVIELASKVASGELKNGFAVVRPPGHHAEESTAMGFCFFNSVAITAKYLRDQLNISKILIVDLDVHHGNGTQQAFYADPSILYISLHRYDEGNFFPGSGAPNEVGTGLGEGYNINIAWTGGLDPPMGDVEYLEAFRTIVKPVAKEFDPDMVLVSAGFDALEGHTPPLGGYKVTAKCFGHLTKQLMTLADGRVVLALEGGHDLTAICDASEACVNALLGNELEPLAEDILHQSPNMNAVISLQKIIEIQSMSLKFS

## O=C(NO)c1ccc(CN2c3ccccc3S(=O)(=O)C[C@H]3CCCC[C@H]32)cc1
Histone deacetylase 1 [1]
  IC50: 8.1 µM
Histone deacetylase 2 [2]
  IC50: 24 µM
Histone deacetylase 3 [3]
  IC50: 24 µM
Histone deacetylase 4 [4]
  IC50: > 30 µM
Histone deacetylase 5 [5]
  IC50: 9.1 µM
[6]
  IC50: 0.008 µM
Histone deacetylase 8 [7]
  IC50: 1.1 µM
Histone deacetylase 9
  IC50: 13 µM
[8]
  IC50: 10 µM
Histone deacetylase 11
  IC50: 2.4 µM

## Cc1noc(C)c1-c1ccnc(N(Cc2ccc(C(=O)NO)cc2)c2cnccn2)c1
Histone deacetylase 1 [9]
  IC50: ≥ 10 µM
[10]
  IC50: ≤ 0.5 µM

## CN1C(=O)C2CN(Cc3c2c2ccccc2n3Cc2ccc(C(=O)NO)cc2)C1=O (stereo unspecified)
Histone deacetylase 1 [11]
  IC50: 3.62 µM
Histone deacetylase 2 [12]
  IC50: 7.45 µM
Histone deacetylase 4 [13]
  IC50: 3.82 µM
Histone deacetylase 5 [14]
  IC50: 1.57 µM
[15]
  IC50: 0.004 µM
Histone deacetylase 8 [16]
  IC50: 0.25 µM
[17]
  IC50: 10.5 µM

## O=C(NO)c1ccc(Cn2c3c(c4ccccc42)S(=O)(=O)CC3)cc1
Histone deacetylase 1 [1]
  IC50: 12 µM
Histone deacetylase 2 [2]
  IC50: > 30 µM
Histone deacetylase 4 [4]
  IC50: 0.6 µM
Histone deacetylase 5 [5]
  IC50: 0.4 µM
[6]
  IC50: 0.008 µM
Histone deacetylase 8 [7]
  IC50: 1.9 µM
Histone deacetylase 9
  IC50: 0.2 µM
[8]
  IC50: 13 µM
Histone deacetylase 11
  IC50: 17 µM

## O=C(NO)c1ccc(NCc2csc3ccc(Br)cc23)cc1
Histone deacetylase 1 [1]
  IC50: > 10 µM
Histone deacetylase 3 [3]
  IC50: > 10 µM
Histone deacetylase 7
  IC50: > 10 µM

## COc1ccc(-c2cc(-c3ccoc3)c(C(=O)NCc3ccc(C(=O)NO)cc3)[nH]2)cc1
Histone deacetylase 1 [18]
  IC50: 0.07 µM
Histone deacetylase 3 [19]
  IC50: 0.08 µM
[20]
  IC50: 0.002 µM

## O=C(NO)c1cccc(-c2csc(CSc3ccccc3)n2)c1
[21]
  IC50: > 100 µM
Histone deacetylase 1 [22]
  IC50: > 100 µM
Histone deacetylase 2 [23]
  IC50: > 100 µM
Histone deacetylase 3 [24]
  IC50: 12 µM
Histone deacetylase 4 [25]
  IC50: > 100 µM
[26]
  IC50: 14 µM
Histone deacetylase 8 [27]
  IC50: 0.15 µM
